Test results as given in patent US10434193B2, “Composition for use in medical imaging and a method for preparing thereof” (Jacobson Research Laboratory Limited, priority 2017, dated 2019).

Test: Determination of relaxivities r1 and r2 of contrast agents under MRI
Assay type: physicochemical
Excerpt: During an MRI study, an MRI contrast agent generally shortens the value of a characteristic time constant known as the relaxation time of the nearby water protons at the tissues being examined to thereby enhance contrast of the image. The relaxivity of a contrast agent reflects how the relaxation rates of a solution change as a function of concentration [C]. Since a contrast agent may individually affect two relaxation rates (1/ΔT1 and 1/ΔT2), the degree of contrast as provided by a contrast agent is generally characterized under two corresponding relaxivities, i.e. r1 and r2 (L/mmol-s), which are defined by: 1/ΔT1=r1·[C] and 1/ΔT2=r2·[C]
The relaxation rates of a contrast agent in solution are obtained by graphing changes in relaxation rates (1/ΔT1) and (1/ΔT2) at different concentrations, with r1 and r2 being determined by the slopes of the graph.
For each of the contrast agents being tested, samples have been prepared in 10 different concentrations, namely, 1000 μg/ml, 750 μg/ml, 500 μg/ml, 250 μg/ml, 125 μg/ml, 62.50 μg/ml, 31.25 μg/ml, 15.63 μg/ml, 7.81 μg/ml and 3.91 μg/ml using DMF:H2O 4:1 as solvent for dilution of the respective stock samples.

[1] = 10 concentrations 3.91-1000 μg/ml in DMF:H2O 4:1

O=[N+]([O-])[O-].O=[N+]([O-])[O-].O=[N+]([O-])[O-].[Fe+3] [Fe(NO3)3, iron nitrate]
r1 [1]: 0.0004 mL/µg/s | r1 (molecular weight adjusted): 0.0968 L/mmol/s

[Cl][Gd]([Cl])[Cl] [GdCl3]
r1 [1]: 0.0494 mL/µg/s | r1 (molecular weight adjusted): 13.0416 L/mmol/s
